Results reported in patent US8420144B2, “Kokumi-imparting agent, method of using, and compositions containing same” (Ajinomoto Co., Inc., priority 2005, dated 2013).
Numbered stars: 1 amine (or outer) side, 2 acyl side, 3 side chain; on linkers, the order of the positions; unused ones are H or OH. Square brackets hold non-standard residues; d marks the D form. Ends that are not written are not given here. γGlu = O=C(O)[C@H](CCC(=O)[*:2])N[*:1]; Orn = NCCC[C@H](N)C(=O)O; Abu = CC[C@H](N)C(=O)O

Target: T1, human calcium receptor (Homo sapiens, UniProt P41180)
T1 construct: expressed in transfected cells; host or cells: Xenopus laevis oocytes microinjected with cRNA; gene amplified by PCR from human kidney cDNA (Clontech)
T1 sequence (P41180 20-1078): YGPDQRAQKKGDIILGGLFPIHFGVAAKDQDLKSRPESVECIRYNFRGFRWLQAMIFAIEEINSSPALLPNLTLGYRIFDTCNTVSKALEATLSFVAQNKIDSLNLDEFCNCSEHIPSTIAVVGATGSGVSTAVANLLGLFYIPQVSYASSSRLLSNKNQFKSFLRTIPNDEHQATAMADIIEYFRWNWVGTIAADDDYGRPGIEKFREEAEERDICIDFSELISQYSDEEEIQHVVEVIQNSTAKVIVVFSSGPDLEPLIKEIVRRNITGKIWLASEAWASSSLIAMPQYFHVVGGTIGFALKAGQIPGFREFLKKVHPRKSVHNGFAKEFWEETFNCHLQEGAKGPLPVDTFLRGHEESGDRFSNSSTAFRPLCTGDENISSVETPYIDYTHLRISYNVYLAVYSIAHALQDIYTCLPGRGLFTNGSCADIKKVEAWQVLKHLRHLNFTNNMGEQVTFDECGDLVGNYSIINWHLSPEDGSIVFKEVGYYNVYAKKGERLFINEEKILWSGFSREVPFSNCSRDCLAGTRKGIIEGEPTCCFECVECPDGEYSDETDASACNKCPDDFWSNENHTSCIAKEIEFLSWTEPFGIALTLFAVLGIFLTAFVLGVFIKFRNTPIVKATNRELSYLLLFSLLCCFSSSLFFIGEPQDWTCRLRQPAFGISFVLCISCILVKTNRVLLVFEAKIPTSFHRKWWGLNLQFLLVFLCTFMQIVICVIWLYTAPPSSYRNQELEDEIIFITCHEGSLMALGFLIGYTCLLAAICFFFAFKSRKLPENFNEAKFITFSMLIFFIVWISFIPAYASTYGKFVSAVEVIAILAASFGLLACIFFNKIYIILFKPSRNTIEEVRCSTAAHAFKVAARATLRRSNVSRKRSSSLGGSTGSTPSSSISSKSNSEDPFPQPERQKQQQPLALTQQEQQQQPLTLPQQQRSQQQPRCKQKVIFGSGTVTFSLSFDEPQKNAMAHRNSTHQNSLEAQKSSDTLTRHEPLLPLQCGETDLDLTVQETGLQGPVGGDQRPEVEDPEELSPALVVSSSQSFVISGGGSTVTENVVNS
Assay: Calcium receptor activation activity: Ca ion concentration-dependent Cl ionic current in Xenopus laevis oocyte expression system
Assay type: cell-based
Details: 50 μM peptide; oocytes voltage-clamped at −70 mV
Method: To evaluate calcium receptor activation activity, a Ca ion concentration-dependent Cl ionic current measuring method using a Xenopus laevis oocyte expression system was used. If each activator is added to Xenopus laevis oocytes expressing the calcium receptor, intracellular Ca ions increase. Then, the Ca ion concentration-dependent Cl channel opens, and the intracellular current value changes as an ionic current. By measuring the change in this intracellular current value, the presence or absence of calcium receptor activation activity can be determined.
Specifically, the abdomen of Xenopus laevis was opened, and an egg batch was taken out and treated with a 1% collagenase solution at 20° C. for 2 hours to obtain individual oocytes. Into the oocytes, 50 nl of 1 μg/μl receptor cRNA or 50 nl of sterilized water per oocyte was introduced by using a micro glass capillary, and the oocytes were cultured at 18° C. for 2 or 3 days. For the culture, a solution obtained by adding 2 mM pyruvic acid, 10 U/ml of penicillin, and 10 μg/ml of streptomycin to the solution in Example 2 was used. After the culture, a test solution was added to the oocytes containing either the cRNA or sterilized water. Electrophysiological measurement was performed by using an amplifier, Geneclamp500 (Axon), and recording software, AxoScope 9.0 (Axon). The oocytes were voltage-clamped at −70 mV by the double electrode voltage clamp method, and the intracellular current was measured via the Ca ion concentration-dependent Cl ion channel. The maximum value of the intracellular current was considered as the response current value.
Calcium receptor activation activity of L-amino acids was evaluated by using the method described in Example 13. That is, oocytes containing either cRNA of the calcium receptor or sterilized water were prepared, and voltage-clamped at −70 mV by the double electrode voltage clamp method. To the voltage-clamped oocytes, alanine (10 mM), arginine (10 mM), asparagine (10 mM), aspartic acid (10 mM), cysteine (10 mM), glutamine (10 mM), glutamic acid (10 mM), glycine (10 mM), histidine (10 mM), isoleucine (10 mM), leucine (10 mM), lysine (10 mM), methionine (10 mM), phenylalanine (10 mM), proline (10 mM), serine (10 mM), threonine (10 mM), tryptophan (10 mM), tyrosine (10 mM), valine (10 mM), ornithine (10 mM), taurine (10 mM), or hydroxyproline (10 mM) was added, and Ca ion concentration-dependent Cl response current was measured. […] As for the aforementioned amino acids, the activation activity was reported in Proc. Natl. Acad. Sci. USA, 2000 Apr. 25, 97(9):4814-9.
Calcium receptor activation activity of D-cysteine was evaluated by using the method described in Example 13. That is, oocytes containing either cRNA of the calcium receptor or sterilized water were prepared, and voltage-clamped at −70 mV by the double electrode voltage clamp method. To the voltage-clamped oocytes, D-cysteine (10 mM), L-cysteine (10 mM), D-tryptophan (10 mM), or L-tryptophan (10 mM) was added, and Ca ion concentration-dependent Cl response current was measured.
Calcium receptor activation activity of peptides was evaluated by using the method described in Example 13. That is, oocytes containing either cRNA of the calcium receptor or sterilized water were prepared, and voltage-clamped at −70 mV by the double electrode voltage clamp method.
Calcium receptor activation activity of peptides was evaluated in the same manner as that of Example 17. Each of the peptides shown in Table 2 was added to voltage-clamped oocytes at 1000 μM, 300 μM, 100 μM, 30 μM, 10 μM, 3 μM, 1 μM, 0.3 μM, and 0.1 μM, and Ca ion concentration-dependent Cl response current was measured.
In the case of N[C@@H](CCC(=O)N[C@@H](CSN=O)C(=O)NCC(=O)O)C(=O)O [γ-Glu-Cys(SNO)-Gly], the “calcium receptor activation activity (Ca ion concentration-dependent Cl response current)” value (shortened to “calcium receptor activation activity”) is reported as “definitive calcium receptor activation activity”. In the case of Glu-Cys, the “calcium receptor activation activity” value is reported as “definitive calcium receptor activation activity”. In the case of [γGlu]-Ala, the “calcium receptor activation activity” value is reported as “definitive calcium receptor activation activity”. For [γGlu]-Cys, the “calcium receptor activation activity” value was “definitive calcium receptor activation activity”. With [γGlu]-Thr the “calcium receptor activation activity” value was “definitive calcium receptor activation activity”. In the case of [γGlu]-Val, the “calcium receptor activation activity” value is reported as “definitive calcium receptor activation activity”.

Same assay, conditions: 500 μM peptide; oocytes voltage-clamped at −70 mV
With Gly-Cys the “calcium receptor activation activity” value was “definitive calcium receptor activation activity”. With [γGlu]-Gly the “calcium receptor activation activity” value was “definitive calcium receptor activation activity”. With [γGlu]-Met the “calcium receptor activation activity” value was “definitive calcium receptor activation activity”. In the case of γ-Glu-Orn, the “calcium receptor activation activity” value is reported as “definitive calcium receptor activation activity”.

Same assay, conditions: 1 mM peptide; oocytes voltage-clamped at −70 mV
In the case of Asp-Gly, the “calcium receptor activation activity” value is reported as “definitive calcium receptor activation activity”. In the case of Cys-Gly, the “calcium receptor activation activity” value is reported as “definitive calcium receptor activation activity”. In the case of Cys-Met, the “calcium receptor activation activity” value is reported as “definitive calcium receptor activation activity”. In the case of Leu-Asp, the “calcium receptor activation activity” value is reported as “definitive calcium receptor activation activity”.

Same assay, conditions: 10 mM amino acid; oocytes voltage-clamped at −70 mV
In the case of N[C@H](CS)C(=O)O [D-cysteine], the “calcium receptor activation activity” value is reported as “definitive calcium receptor activation activity”. In the case of N[C@@H](CS)C(=O)O [cysteine, reference compound], the “calcium receptor activation activity” value is reported as “definite calcium receptor activation activity”. For N[C@@H](Cc1c[nH]cn1)C(=O)O [histidine, reference compound], the “calcium receptor activation activity” value was “definite calcium receptor activation activity”. With N[C@@H](Cc1ccccc1)C(=O)O [phenylalanine, reference compound] the “calcium receptor activation activity” value was “definite calcium receptor activation activity”. For N[C@@H](Cc1c[nH]c2ccccc12)C(=O)O [tryptophan, reference compound], the “calcium receptor activation activity” value was “definite calcium receptor activation activity”. For N[C@@H](Cc1ccc(O)cc1)C(=O)O [tyrosine, reference compound], the “calcium receptor activation activity” value was “definite calcium receptor activation activity”.

Same assay, conditions: added at 1000, 300, 100, 30, 10, 3, 1, 0.3 and 0.1 μM
With [γGlu]-Gly-Gly the “Activity (lowest concentration for which current was detected)” value was 30 µM. In the case of [γGlu]-Ser-Gly, the “Activity (lowest concentration for which current was detected)” value is reported as 30 µM. With [γGlu]-Val-Arg the “Activity (lowest concentration for which current was detected)” value was 1000 µM. In the case of [γGlu]-Val-Asn, the “Activity (lowest concentration for which current was detected)” value is reported as 30 µM. For [γGlu]-Val-Cys, the “Activity (lowest concentration for which current was detected)” value was 10 µM. For [γGlu]-Val-Gln, the “Activity (lowest concentration for which current was detected)” value was 10 µM. With [γGlu]-Val-Glu the “Activity (lowest concentration for which current was detected)” value was 1000 µM. In the case of [γGlu]-Val-His, the “Activity (lowest concentration for which current was detected)” value is reported as 100 µM. In the case of [γGlu]-Val-Lys, the “Activity (lowest concentration for which current was detected)” value is reported as 1000 µM. With [γGlu]-Val-Met the “Activity (lowest concentration for which current was detected)” value was 1000 µM. For [γGlu]-Val-Phe, the “Activity (lowest concentration for which current was detected)” value was 30 µM. For [γGlu]-Val-Pro, the “Activity (lowest concentration for which current was detected)” value was 30 µM. With [γGlu]-Val-Ser the “Activity (lowest concentration for which current was detected)” value was 30 µM. In the case of [γGlu]-Val-Thr, the “Activity (lowest concentration for which current was detected)” value is reported as 1000 µM. With [γGlu]-Val-Val the “Activity (lowest concentration for which current was detected)” value was 1000 µM. With [γGlu]-Val-[Orn] the “Activity (lowest concentration for which current was detected)” value was 100 µM. In the case of [γGlu]-[Abu]-Gly, the “Activity (lowest concentration for which current was detected)” value is reported as 3 µM. With [γGlu]-[γGlu]-Val the “Activity (lowest concentration for which current was detected)” value was 1000 µM. With γ-Glu-Cys(S-Me)-Gly the “Activity (lowest concentration for which current was detected)” value was 3 µM. With γ-Glu-Cys(S-allyl)-Gly the “Activity (lowest concentration for which current was detected)” value was 100 µM. In the case of γ-Glu-Tau, the “Activity (lowest concentration for which current was detected)” value is reported as 300 µM. For γ-Glu-Val-Asp, the “Activity (lowest concentration for which current was detected)” value was 1000 µM. For γ-Glu-t-Leu, the “Activity (lowest concentration for which current was detected)” value was 100 µM.

Tested on: not listed separately
Assay: Quantitative sensory evaluation test of kokumi-imparting activity in water with sodium glutamate, inosine monophosphate and sodium chloride
Assay type: in vivo, human
Details: Table 5; 0.1 g/dl; n=3; control 0, glutathione 3 points
Method: Sample solutions that became acidic after dissolution of the samples were adjusted to pH 6.8 to 7.2 with NaOH before use. Sensory evaluation scores were used for evaluation based on the control sample (0 points) and the glutathione sample (3 points), and the test was performed with n=3.
The sample solutions that became acidic after dissolution of the samples were adjusted to pH 6.8 to 7.2 with NaOH before use. Sensory evaluation scores were used for evaluation based on the control sample (0 points) and the glutathione sample (3 points), and the test was performed with n=5.
Sample solutions that became acidic after dissolution of the samples were adjusted to pH 6.8 to 7.2 with NaOH before use. Sensory evaluation scores were used for evaluation based on the control sample (0 points) and the glutathione sample (3 points), and the test was performed with n=12.
In the case of [γGlu]-Ala, the “Intensity of kokumi: Aftertaste” value is reported as 0.2 points and the “Intensity of kokumi: First and middle taste” value is reported as 0.5 points. In the case of [γGlu]-Met, the “Intensity of kokumi: Aftertaste” value is reported as 0.4 points and the “Intensity of kokumi: First and middle taste” value is reported as 1.5 points. With [γGlu]-Val the “Intensity of kokumi: Aftertaste” value was 1.0 points and the “Intensity of kokumi: First and middle taste” value was 3.0 points.

Same assay, conditions: Table 6; 0.1 g/dl; n=5; control 0, glutathione 3 points
In the case of [γGlu]-Cys, the “Intensity of kokumi: Aftertaste” value is reported as 2.0 points and the “Intensity of kokumi: First and middle taste” value is reported as 2.0 points. In the case of [γGlu]-Val, the “Intensity of kokumi: Aftertaste” value is reported as 1.0 points and the “Intensity of kokumi: First and middle taste” value is reported as 3.0 points.

Same assay, conditions: Table 7; 0.01 g/dl; n=12; control 0, glutathione 3 points
With [γGlu]-[Abu]-Gly the “Intensity of kokumi: Aftertaste” value was 2.0 points and the “Intensity of kokumi: First and middle taste” value was 3.0 points.
